Target: M. tuberculosis RNA polymerase (Mycobacterium tuberculosis, UniProt P9WGY7+P9WGY9+P9WGZ1)
Experiment: In vitro (cell-free) high-throughput transcription screen with reconstituted RNA polymerase and T101 promoter template
Assay type: biochemical
Conditions: rifampicin at 30 nM; control compound; TCA-precipitated [α-32P]-UTP-labelled RNA, 30 min at 25° C.
Procedure: High-throughput screens for anti-tuberculosis agents may be performed using either an in vitro or in vivo format. In either case, the ability of test compounds to inhibit M. tuberculosis RNA polymerase-driven transcription of M. tuberculosis promoters is tested. Typically, a strong promoter such as T101 is used for the test reactions. The sequence of the T101 promoter is: identified by SEQ. ID. NO. 15 and read as follows.
The following procedure is used for cell-free high-throughput screening. A Tomtec Quadra 96-well pipetting station is used to add the reaction components to polypropylene 96-well dishes. 5 μl aliquots of test compounds dissolved in DMSO (or DMSO alone as a control) are added to wells. This is followed by 20 μl of the RNA polymerase mixture, which consists of: 10 mM DTT, 200 mM KCl, 10 mM Mg^+2, 1.5 μM bovine serum albumin, and 0.25 μg reconstituted RNA polymerase. […]
After incubation for 30 min at 25° C., the reaction is stopped by addition of 150 μl 10% trichloroacetic acid (TCA). […] The wells of the microtiter plate and the filter are washed twice with 5% TCA and bound radioactivity is determined usinjg a Wallac microbeta 1450 scintillation counter. Inhibitory activity due to the test compound is calculated according to the formula: [formula] […]

Chain of M. tuberculosis RNA polymerase (P9WGY7 whole entry, looked up): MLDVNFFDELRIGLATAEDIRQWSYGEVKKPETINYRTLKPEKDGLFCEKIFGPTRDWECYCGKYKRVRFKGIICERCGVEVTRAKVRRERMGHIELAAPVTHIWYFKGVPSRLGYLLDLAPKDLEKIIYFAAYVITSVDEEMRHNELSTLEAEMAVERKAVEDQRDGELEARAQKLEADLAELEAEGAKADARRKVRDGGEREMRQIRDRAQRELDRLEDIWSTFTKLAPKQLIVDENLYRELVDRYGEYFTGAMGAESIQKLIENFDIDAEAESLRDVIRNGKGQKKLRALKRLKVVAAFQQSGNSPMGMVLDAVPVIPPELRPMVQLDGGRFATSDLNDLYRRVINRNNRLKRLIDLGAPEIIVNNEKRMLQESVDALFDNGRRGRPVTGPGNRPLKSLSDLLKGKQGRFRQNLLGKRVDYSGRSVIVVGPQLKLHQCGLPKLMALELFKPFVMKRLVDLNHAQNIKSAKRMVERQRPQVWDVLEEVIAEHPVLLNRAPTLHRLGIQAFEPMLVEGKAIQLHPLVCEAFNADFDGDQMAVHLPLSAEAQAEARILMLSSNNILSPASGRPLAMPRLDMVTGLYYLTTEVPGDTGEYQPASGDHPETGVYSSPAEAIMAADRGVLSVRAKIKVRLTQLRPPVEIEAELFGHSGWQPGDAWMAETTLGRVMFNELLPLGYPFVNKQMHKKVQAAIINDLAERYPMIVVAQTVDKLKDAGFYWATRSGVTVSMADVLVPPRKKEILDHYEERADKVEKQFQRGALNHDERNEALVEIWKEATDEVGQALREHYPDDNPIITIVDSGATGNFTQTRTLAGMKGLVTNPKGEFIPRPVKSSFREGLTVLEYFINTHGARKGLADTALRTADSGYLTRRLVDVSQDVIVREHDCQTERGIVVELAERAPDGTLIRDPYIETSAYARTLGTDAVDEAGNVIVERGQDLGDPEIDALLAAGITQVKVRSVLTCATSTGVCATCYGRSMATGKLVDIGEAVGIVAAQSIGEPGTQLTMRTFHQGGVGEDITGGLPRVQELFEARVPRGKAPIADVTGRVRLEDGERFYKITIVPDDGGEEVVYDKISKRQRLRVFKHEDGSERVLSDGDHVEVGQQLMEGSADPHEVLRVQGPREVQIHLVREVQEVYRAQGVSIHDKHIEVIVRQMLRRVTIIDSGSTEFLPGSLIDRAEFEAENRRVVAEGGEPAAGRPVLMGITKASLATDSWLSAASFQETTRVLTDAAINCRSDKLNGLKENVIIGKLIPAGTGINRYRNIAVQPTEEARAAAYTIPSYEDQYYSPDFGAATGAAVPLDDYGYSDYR
Chain of M. tuberculosis RNA polymerase (P9WGY9 whole entry, looked up): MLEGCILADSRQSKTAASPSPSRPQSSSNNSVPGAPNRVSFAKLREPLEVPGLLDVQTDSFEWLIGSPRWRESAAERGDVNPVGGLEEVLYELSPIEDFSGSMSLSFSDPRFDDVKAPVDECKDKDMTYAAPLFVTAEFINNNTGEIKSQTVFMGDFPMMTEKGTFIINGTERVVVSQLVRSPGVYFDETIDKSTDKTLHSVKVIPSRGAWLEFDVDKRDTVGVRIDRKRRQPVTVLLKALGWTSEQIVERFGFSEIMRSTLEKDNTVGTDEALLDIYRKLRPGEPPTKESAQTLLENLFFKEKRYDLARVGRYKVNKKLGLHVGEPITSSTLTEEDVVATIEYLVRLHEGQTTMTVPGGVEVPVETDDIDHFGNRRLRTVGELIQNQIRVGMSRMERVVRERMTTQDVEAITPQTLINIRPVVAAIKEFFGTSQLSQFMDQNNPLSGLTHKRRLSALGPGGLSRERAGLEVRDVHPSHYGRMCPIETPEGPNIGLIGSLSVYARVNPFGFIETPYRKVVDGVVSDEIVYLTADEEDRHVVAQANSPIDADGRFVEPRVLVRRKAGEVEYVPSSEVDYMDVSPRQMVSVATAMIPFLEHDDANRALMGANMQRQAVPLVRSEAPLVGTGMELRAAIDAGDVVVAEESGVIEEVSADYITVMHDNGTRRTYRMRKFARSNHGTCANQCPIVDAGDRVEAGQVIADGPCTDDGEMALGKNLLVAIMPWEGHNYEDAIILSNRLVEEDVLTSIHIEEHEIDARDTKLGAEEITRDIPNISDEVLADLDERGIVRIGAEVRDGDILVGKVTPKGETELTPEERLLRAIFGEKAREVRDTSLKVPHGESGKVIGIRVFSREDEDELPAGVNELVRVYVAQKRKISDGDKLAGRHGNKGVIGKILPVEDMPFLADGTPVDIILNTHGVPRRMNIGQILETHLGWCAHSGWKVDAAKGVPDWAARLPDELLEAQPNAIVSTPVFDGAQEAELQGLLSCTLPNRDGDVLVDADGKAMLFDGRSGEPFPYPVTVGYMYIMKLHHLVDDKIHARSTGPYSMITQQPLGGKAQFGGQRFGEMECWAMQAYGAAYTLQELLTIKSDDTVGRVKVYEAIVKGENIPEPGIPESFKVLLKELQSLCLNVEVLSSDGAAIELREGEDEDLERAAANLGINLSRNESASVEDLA
Chain of M. tuberculosis RNA polymerase (P9WGZ1 whole entry, looked up): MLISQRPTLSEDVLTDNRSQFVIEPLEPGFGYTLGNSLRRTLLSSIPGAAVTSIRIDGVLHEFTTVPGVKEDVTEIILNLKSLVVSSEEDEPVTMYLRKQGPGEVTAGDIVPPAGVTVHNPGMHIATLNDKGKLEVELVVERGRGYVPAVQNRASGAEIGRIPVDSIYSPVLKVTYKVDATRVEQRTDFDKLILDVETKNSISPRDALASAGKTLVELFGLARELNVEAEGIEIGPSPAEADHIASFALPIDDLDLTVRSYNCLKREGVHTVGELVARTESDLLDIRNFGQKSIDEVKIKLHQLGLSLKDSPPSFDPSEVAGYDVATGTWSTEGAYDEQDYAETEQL

`CO[C@H]1/C=C/O[C@@]2(C)Oc3c(C)c(O)c4c(O)c(c(/C=N/N5CCN(C)CC5)c(O)c4c3C2=O)NC(=O)/C(C)=C\C=C\[C@H](C)[C@H](O)[C@@H](C)[C@@H](O)[C@@H](C)[C@H](OC(C)=O)[C@@H]1C` [rifampicin] was tested. Which inhibition of transcription did it give?
The inhibition of transcription was 50-75%.
